We go through two molecules from PMC12048343, “Discovery of a small molecule secreted clusterin enhancer that improves memory in Alzheimer’s disease mice” (npj Drug Discovery, 2025).

Broadly, the EC50 is the concentration needed to bring the measured effect to its halfway point. One may read the kinetic solubility as solubility judged after dilution from a stock solution rather than from solid.

Data set [1] has as its system sCLU secreted from human U-87 MG glioblastoma cells. Description: Human sCLU AlphaLISA on supernatant of U-87 MG cells (HTS, re-test, dose response). It counts as cell-based. The following applies: U-87 MG cells; for EC50: Homo sapiens. On the procedure: Cell culture supernatant (2 μL) was added to a 384-well proxy plate preloaded with AlphaLISA HiBlock buffer (2 µL, 1X, CAT#AL004C, Perkin Elmer). Then an anti-sCLU antibody mixture (2 µL, mAb J84, biotinylated (10 nM, Cat# 3717-6-1000, Mabtech) and mAb CLU aa 22-227 (Cat#AF7084, R&D Systems), Acceptor bead conjugated (50 µg/mL, Cat#6772001, Perkin Elmer)) was added and incubated at room temperature for 1 hour. AlphaScreen Streptavidin Donor beads (2 µL, Cat#6760002S, Perkin Elmer) were added, incubated for an additional 30 min in the dark, and the plate was read in an Envision plate reader.
Human glioblastoma U-87 MG cells were proliferated in EMEM with 10% FBS and 1% P/S (complete medium) in 10 cm dishes until approximately 90% confluent. Following trypsinization, a suspension of 2 × 10^5 cells/mL (25 µL) were added to 384-well plates containing complete medium (25 µL) and library compounds from 9 plates (5 µM). After incubation for 30 h at 37 °C and 5% CO2, 2 μL of cell culture supernatant were analyzed via human sCLU AlphaLISA as described above. Cell culture medium and cells were added to the 384-well plates using the MultiDrop. The BioMek FX was used to pin the drugs and transfer the cell culture supernatant. The MANTIS liquid handler was used to added human sCLU AlphaLISA reagents.
Human glioblastoma U-87 MG cells were proliferated in EMEM with 10% FBS and 1% P/S (complete medium) in 10 cm dishes until approximately 90% confluent. […] After incubation for 30 hours at 37 °C and 5% CO2, 2 μL of cell culture supernatant were analyzed via human sCLU AlphaLISA as described above.
In general terms: Alpha assays give light when donor and acceptor beads are brought close together.

The test system of data set [2] is nCLU levels in U-87 MG cells. The data set is described as follows: nCLU levels in U-87 MG cells. The following applies: 5 µM. The data set is classed as cell-based, human.
Data set [3] has as its system U-87 MG cells. The data set is described as follows: Cytotoxicity, MultiTox-Fluor (CNS gliotoxicity). As to conditions: U-87 MG cells, dose response (Fig. 2F). The source says:
Cell viability and toxicity were simultaneously assessed using the MultiTox-Fluor Multiplex Cytotoxicity Assay (Cat# PRG9200, Fisher Scientific) according to the manufacturer’s protocol.

Data set [4] in a line: Kinetic solubility. The following applies: aqueous buffer, kinetic from dmso stock, PBS pH 7.4, 37 °C, 100 µM nominal. It counts as physicochemical. How it is done: Test compound (10 mM, 100% DMSO) was diluted separately into aqueous buffer (100 µM; PBS pH 7.4) and DMSO at various concentrations (1000, 100, 10, 1, 0.1 µM). The solutions were then incubated at 37 °C for 90 min and centrifuged (16000xg, 5 min). An aliquot of each supernatant was analyzed by UV/Vis (if possible) or LC-MS/MS. A standard curve was made by plotting the known amount of analyte per standard in DMSO vs. absorbance or chromatographic peak area. Kinetic solubility (mM) was calculated using the trendline equation with maximum absorbance or chromatographic peak area observed in the aqueous sample.

Data set [5] in a line: Liver microsome stability assay. The data set is classed as in vitro ADME. As to conditions: pH 7.4; human liver microsomes 0.5 mg/mL, NADPH, 37 °C, up to 120 min; read-out: Microsomal Stability t1/2. How it is done:
An aliquot (1 µL) of test compound (1 mM, 100% DMSO) was added to an aqueous liver microsome solution (1000 µL, PBS pH 7.4, 0.5 mg/mL human liver microsomes (Thermo Fisher Scientific, Cat#HMMPL), 2 mM NADPH, 2 mM MgCl2) and incubated at 37 °C for 120 min. Aliquots (50 µL) of the microsome solution were taken at various time points (0, 5, 10, 15, 30, 60, 90, 120 min) and added to a reaction quenching solution (200 µL 100% Acetonitrile) containing an internal standard. Solutions were clarified by centrifugation (16,000 x g, 5 min), and the supernatants were transferred to new tubes and lyophilized. Samples were reconstituted in 100 µL of 50/50/0.1 (Water/Acetonitrile/Formic Acid) prior to analysis via liquid chromatography-tandem mass spectrometry (LC-MS/MS). Chromatographic peak areas normalized to the internal standard were plotted at each time point and the half-life (t1/2) of compound in liver microsomes was determined by using the trendline equation to calculate the time at which compound abundance was 50% of that at time point 0 (t0).
For orientation: Liver microsomes are a subcellular fraction often used to study metabolism.

A short description of data set [6]: Plasma binding assay (dialysis). The data set is classed as in vitro ADME. The following applies: dialysis 4.5 hours, 37 °C. How it is done:
(§1) Brain tissue was homogenized in PBS (pH 7.4) (1: 3 weight(mg)/volume(µL)) and the protein concentration was determined using the Micro BCA™ Protein Assay Kit (Thermo Fisher Scientific, Cat#23235). Brain homogenate was clarified and diluted to 20 mg/mL in PBS (pH 7.4). Either brain homogenate or plasma was and added to Slide-A-Lyzer™ MINI Dialysis Devices, 10 K MWCO dialysis cups (Thermo Fisher Scientific, Cat#PI88401) in a 48-well plate containing PBS (500 µL; pH 7.4). 1 µL of 1 mM compound was added to the brain homogenate (Final Concentration: 2 µM compound, 0.5% DMSO) and incubated on a rocker for 4.5 hours at 37 °C. 50 µL of brain homogenate or plasma (within the dialysis cup) and PBS (within the 48-well plate) were transferred to new microcentrifuge tubes containing 400 µL of quenching reagent (100% Acetonitrile) containing internal standard. Solutions were clarified by centrifugation (16,000 x g, 5 min), and the supernatants were transferred to new tubes and lyophilized. Samples were reconstituted in 100 µL of 50/50/0.1 (Water/Acetonitrile/Formic Acid) prior to analysis via liquid chromatography-tandem mass spectrometry (LC-MS/MS). The % of the unbound drug (fu,bound) was calculated using the following equation:
(§2) % Bound = [1− (PBS chromatographic peak area/ brain homogenate or plasma chromatographic peak area)] x 100

Data set [7] can be described thus: Brain tissue binding assay (dialysis). The data set is classed as in vitro ADME. The following applies: brain homogenate 20 mg/mL, 2 µM compound, dialysis 4.5 hours, 37 °C. On the procedure:
as §1, §2

Data set [8] is described as follows: Blood-Brain Barrier (BBB) permeability assay (IAM column, Pm). As to conditions: pH 7.4; Pm > 1.0 = CNS+. The data set is classed as in vitro ADME. On the procedure:
A liquid chromatography-ultraviolet/visible spectroscopy (LC-UV/Vis) assay was performed on a 1290 Infinity HPLC system (Agilent Technologies) with an HPLC column containing immobilized phosphatidylcholine (IAM.PC.DD, Regis Technologies, Cat#774011, 5 µm 300 Å 100 ×4.6 mm). The HPLC method was a mixture of 6.7 mM phosphate buffer saline (pH 7.4; solvent A) and acetonitrile (solvent B), and a gradient was used for the elution of the compounds (min/%B: 0/20, 20/60, 21/20, 30/20). The retention time of the compound (tr) and void volume time of the column (t0) were recorded. Blood-brain barrier (BBB) permeability (Pm) was calculated using the following equations as described by Yoon et al. (10.1177/1087057105281656):
KIAM = (tr − t0) / t0; Pm = (KIAM / MW^4) x 10^10
Compounds with a Pm > 1.0 were determined to be BBB permeable (CNS + ) at pH 7.

Values after ≈ are worked out from the molar mass of the structure shown. Where two headings read alike, the source gives them in different places.

As to `O=C(/C=C/c1cccc(S(=O)(=O)Nc2ccccc2)c1)NO` [belinostat], in data set [1] (dose response, text and figures, read-out: sCLU EC50), the concentration giving a half-maximal response (EC50) was 1.12 µM. The “sCLU levels relative to DMSO control” value in data set [1] (5 µM) was “increased sCLU”. Further, the nCLU levels entry in data set [2] is listed as “not affecting nCLU levels”. Moreover, the “cytotoxicity, comparison in words” value in data set [3] was “significant differences between belinostat and the BET inhibitors at the highest concentrations tested”.

Take `Cc1sc2c(c1C)C(c1ccc(Cl)cc1)=N[C@@H](CC(=O)OC(C)(C)C)c1nnc(C)n1-2` [(+)-JQ1, reference compound]: the EC50 in data set [1] (30 h, AlphaLISA of supernatant, read-out: EC50 for sCLU increase) worked out at 0.313 µM. Further, the nCLU levels entry in data set [2] was “not affecting nCLU levels”. In data set [4], this molecule yielded a solubility (kinetic) at 90 min of 86.5 µM (≈ 39.5 µg/mL). Moreover, in data set [5], the half-life at 1 µM turned out to be 27 min. Further, the “Plasma Binding” value in data set [6] is 85 % bound. Further, the “Brain Tissue Binding” value in data set [7] turned out to be 87 % bound. In addition, the “PAMPA Pm” value in data set [8] is listed as 1.44.
